Experimental data: the supplement of paper PMC5662764
± gives the standard deviation of the averaged measurements.

Experiments:
Assay in all cases: normalised growth rate inhibition (GR value) relative to DMSO control (GR (1 = untreated growth, 0 = cytostasis, <0 = cytotoxic)); higher = less growth inhibition
Conditions in all cases: 72 h
MCF7 = test system: MCF7
Method: (§1)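 Breast cancer cell lines (BT-20, Hs 578T, MCF 10A, MCF7, MDA-MB-231, SK-BR-3) were plated in 384-well plates and treated 24 h later with drugs at six concentrations (0.04-10 µM). Viable cells were counted by Hoechst/dead-cell-stain imaging at 0 and 72 h. Counts were normalised to DMSO controls on the same plate to give the relative cell count and the growth-rate inhibition (GR) value; technical plate triplicates were averaged for each biological replicate.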

MDAMB231 = test system: MDAMB231
Method: as §1

HS578T = test system: HS578T
Method: as §1

SKBR3 = test system: SKBR3
Method: as §1

BT20 = test system: BT20
Method: as §1

MCF10A = test system: MCF10A
Method: as §1

Compound	normalised growth rate inhibition (MCF7; 0.04 µM)	normalised growth rate inhibition (MCF7; 0.12 µM)	normalised growth rate inhibition (MCF7; 0.37 µM)	normalised growth rate inhibition (MCF7; 1.11 µM)	normalised growth rate inhibition (MCF7; 3.33 µM)	normalised growth rate inhibition (MCF7; 10 µM)	normalised growth rate inhibition (MDAMB231; 0.04 µM)	normalised growth rate inhibition (MDAMB231; 0.12 µM)	normalised growth rate inhibition (MDAMB231; 0.37 µM)	normalised growth rate inhibition (MDAMB231; 1.11 µM)	normalised growth rate inhibition (MDAMB231; 3.33 µM)	normalised growth rate inhibition (MDAMB231; 10 µM)	normalised growth rate inhibition (HS578T; 0.04 µM)	normalised growth rate inhibition (HS578T; 0.12 µM)	normalised growth rate inhibition (HS578T; 0.37 µM)	normalised growth rate inhibition (HS578T; 1.11 µM)	normalised growth rate inhibition (HS578T; 3.33 µM)	normalised growth rate inhibition (HS578T; 10 µM)	normalised growth rate inhibition (SKBR3; 0.04 µM)	normalised growth rate inhibition (SKBR3; 0.12 µM)	normalised growth rate inhibition (SKBR3; 0.37 µM)	normalised growth rate inhibition (SKBR3; 1.11 µM)	normalised growth rate inhibition (SKBR3; 3.33 µM)	normalised growth rate inhibition (SKBR3; 10 µM)	normalised growth rate inhibition (BT20; 0.04 µM)	normalised growth rate inhibition (BT20; 0.12 µM)	normalised growth rate inhibition (BT20; 0.37 µM)	normalised growth rate inhibition (BT20; 1.11 µM)	normalised growth rate inhibition (BT20; 3.33 µM)	normalised growth rate inhibition (BT20; 10 µM)	normalised growth rate inhibition (MCF10A; 0.04 µM)	normalised growth rate inhibition (MCF10A; 0.12 µM)	normalised growth rate inhibition (MCF10A; 0.37 µM)	normalised growth rate inhibition (MCF10A; 1.11 µM)	normalised growth rate inhibition (MCF10A; 3.33 µM)	normalised growth rate inhibition (MCF10A; 10 µM)
CNC(=O)Nc1ccc(-c2nc(N3CC4CCC(C3)O4)c3cnn(C4CCC5(CC4)OCCO5)c3n2)cc1	0.16 ± 0.091	0.14 ± 0.1	0.13 ± 0.069	0.149 ± 0.1	0.0933 ± 0.1	-0.00137 ± 0.14	0.499 ± 0.16	0.369 ± 0.18	0.301 ± 0.15	0.285 ± 0.12	0.23 ± 0.12	0.0984 ± 0.14	0.268 ± 0.079	0.212 ± 0.066	0.198 ± 0.091	0.172 ± 0.096	0.177 ± 0.093	0.101 ± 0.15	0.0703 ± 0.093	0.000862 ± 0.13	-0.00643 ± 0.17	-0.00784 ± 0.15	-0.0626 ± 0.15	-0.0635 ± 0.14	0.473 ± 0.17	0.269 ± 0.11	0.208 ± 0.084	0.15 ± 0.064	0.113 ± 0.075	0.0435 ± 0.086	0.506 ± 0.15	0.284 ± 0.064	0.224 ± 0.057	0.176 ± 0.017	0.151 ± 0.042	0.14 ± 0.026
COc1cc2ncnc(-n3nc(-c4ccccn4)nc3N)c2cc1OC	1.09 ± 0.051	1.04 ± 0.045	1.05 ± 0.083	1.01 ± 0.1	0.918 ± 0.14	0.499 ± 0.41	1.05 ± 0.057	1.02 ± 0.058	0.785 ± 0.4	0.938 ± 0.041	0.903 ± 0.1	0.534 ± 0.25	1.035 ± 0.0072	1.04 ± 0.021	1.05 ± 0.033	1.02 ± 0.053	0.978 ± 0.083	0.686 ± 0.15	1.16 ± 0.032	1.05 ± 0.033	1.04 ± 0.069	0.95 ± 0.13	0.871 ± 0.17	0.479 ± 0.44	1.07 ± 0.0067	1.03 ± 0.032	1.01 ± 0.036	1.02 ± 0.014	0.954 ± 0.047	0.588 ± 0.22	1.018 ± 0.01	1.01 ± 0.014	1.008 ± 0.0099	0.994 ± 0.011	0.972 ± 0.018	0.729 ± 0.26
O=C1c2c(O)ccc(O)c2C(=O)c2c(NCCNCCO)ccc(NCCNCCO)c21 [mitoxantrone]	0.0337 ± 0.042	0.0173 ± 0.037	0.0313 ± 0.056	-0.141 ± 0.11	-0.348 ± 0.039	-0.59 ± 0.15	-0.0551 ± 0.058	-0.0634 ± 0.075	-0.137 ± 0.1	-0.222 ± 0.15	-0.327 ± 0.24	-0.48 ± 0.21	0.0811 ± 0.1	-0.0173 ± 0.041	-0.0612 ± 0.043	-0.207 ± 0.087	-0.394 ± 0.11	-0.511 ± 0.17	-0.0581 ± 0.17	-0.0745 ± 0.18	-0.0948 ± 0.2	-0.164 ± 0.17	-0.353 ± 0.13	-0.707 ± 0.16	0.252 ± 0.12	0.0494 ± 0.084	-0.0983 ± 0.12	-0.205 ± 0.14	-0.243 ± 0.12	-0.461 ± 0.18	0.228 ± 0.057	0.0237 ± 0.034	-0.00408 ± 0.025	-0.0492 ± 0.02	-0.186 ± 0.1	-0.142 ± 0.092
c1ccc2c(-c3cnn4cc(-c5ccc(N6CCNCC6)cc5)cnc34)ccnc2c1	1.08 ± 0.047	1 ± 0.075	1.01 ± 0.072	0.868 ± 0.044	0.258 ± 0.34	-0.368 ± 0.019	0.996 ± 0.073	0.938 ± 0.084	0.925 ± 0.072	0.727 ± 0.056	0.0105 ± 0.45	-0.355 ± 0.038	0.952 ± 0.025	0.911 ± 0.011	0.897 ± 0.027	0.862 ± 0.072	0.244 ± 0.58	-0.361 ± 0.083	1.09 ± 0.11	1.04 ± 0.11	1.09 ± 0.056	0.987 ± 0.048	-0.0902 ± 0.23	-0.515 ± 0.11	0.994 ± 0.036	0.905 ± 0.039	0.915 ± 0.093	0.645 ± 0.21	-0.08 ± 0.34	-0.507 ± 0.082	0.999 ± 0.014	0.9817 ± 0.0032	0.9705 ± 0.0076	0.953 ± 0.032	0.661 ± 0.34	-0.396 ± 0.11
